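Cells were grown in 96-well plates and exposed to each compound for 48 hours at five concentrations; endpoints were interpolated linearly between bracketing concentrations, or set to the highest concentration if not reached. GI50 is the concentration that inhibits growth by half.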 Calls of active or inactive are those of the source. Rule as the data show it: active = GI50 up to about 1.1 µM and inactive = higher. Residues, ends and D or L forms follow the SMILES beside them. *: point of attachment. Boc = CC(C)(C)OC(=O)*; OBn = c1ccc(CO*)cc1; Bn = c1ccc(C*)cc1
Legend:
Test in all cases: DTP human tumour cell line panel, 48 h
HCT-116 = test system: HCT-116
SK-MEL-28 = test system: SK-MEL-28
A549 = test system: A549
HOP-92 = test system: HOP-92
UACC-257 = test system: UACC-257
SF-295 = test system: SF-295
SK-MEL-2 = test system: SK-MEL-2
SF-268 = test system: SF-268
NCI-H522 = test system: NCI-H522
Malme-3M = test system: Malme-3M
SNB-75 = test system: SNB-75
SF-539 = test system: SF-539
K562 = test system: K562
HL-60 = test system: HL-60
LOX IMVI = test system: LOX IMVI
SK-MEL-5 = test system: SK-MEL-5
Hs-578T = test system: Hs-578T
MDA-N = test system: MDA-N
MDA-MB-435 = test system: MDA-MB-435
BT-549 = test system: BT-549

| Compound | GI50 (HCT-116) | GI50 (SK-MEL-28) | GI50 (A549) | GI50 (HOP-92) | GI50 (UACC-257) | GI50 (SF-295) | GI50 (SK-MEL-2) | GI50 (SF-268) | GI50 (NCI-H522) | GI50 (Malme-3M) | GI50 (SNB-75) | GI50 (SF-539) | GI50 (K562) | GI50 (HL-60) | GI50 (LOX IMVI) | GI50 (SK-MEL-5) | GI50 (Hs-578T) | GI50 (MDA-N) | GI50 (MDA-MB-435) | GI50 (BT-549) |
| --- | --- | --- | --- | --- | --- | --- | --- | --- | --- | --- | --- | --- | --- | --- | --- | --- | --- | --- | --- | --- |
| c1ccc2c(c1)oc1ccc3nsnc3c12 | > 100 µM (inactive) | > 100 µM (inactive) | > 100 µM (inactive) | 45.7 µM (inactive) | > 100 µM (inactive) | > 100 µM (inactive) | > 100 µM (inactive) | > 100 µM (inactive) | > 100 µM (inactive) | > 100 µM (inactive) | 53.3 µM (inactive) | > 100 µM (inactive) | > 100 µM (inactive) | > 100 µM (inactive) | > 10 µM (inactive) | > 100 µM (inactive) |  |  |  |  |
| O=C(O)CCCNc1ncc2c(n1)-c1ccccc1OC2 | > 100 µM (inactive) | > 100 µM (inactive) | > 100 µM (inactive) | > 100 µM (inactive) | > 100 µM (inactive) | > 100 µM (inactive) | > 100 µM (inactive) | > 100 µM (inactive) | > 100 µM (inactive) | > 100 µM (inactive) | 33.8 µM (inactive) | > 100 µM (inactive) | > 100 µM (inactive) | 30.1 µM (inactive) | > 100 µM (inactive) | > 100 µM (inactive) | > 100 µM (inactive) | > 100 µM (inactive) | > 100 µM (inactive) |  |
| C1CCC2C(C1)CCCC2NC1=NCCO1 (configuration not stated) | > 100 µM (inactive) | 76 µM (inactive) | > 100 µM (inactive) |  | 69.3 µM (inactive) | > 100 µM (inactive) | > 100 µM (inactive) | > 100 µM (inactive) | > 100 µM (inactive) | > 100 µM (inactive) | 72.8 µM (inactive) | > 100 µM (inactive) | > 100 µM (inactive) | > 100 µM (inactive) | > 100 µM (inactive) | 70 µM (inactive) |  | > 100 µM (inactive) | > 100 µM (inactive) |  |
| O=C1C(Cl)=C(N2CCN(CCOCCO)CC2)C(=O)c2ccccc21 | 3.97 µM (inactive) | 17.3 µM (inactive) | 18.7 µM (inactive) | 1.49 µM (inactive) | 5.12 µM (inactive) | 18 µM (inactive) | 8.89 µM (inactive) | 16.4 µM (inactive) | 1.77 µM (inactive) | 6.07 µM (inactive) | 14.2 µM (inactive) | 18.9 µM (inactive) | 2.2 µM (inactive) | 1.67 µM (inactive) | 6.4 µM (inactive) | 14.7 µM (inactive) | 19.1 µM (inactive) | 2.18 µM (inactive) | 3.41 µM (inactive) |  |
| C[C@@H]1C(O)CC[C@H](C)C12CC=CC2=O (some centres not stated) | > 100 µM (inactive) | > 100 µM (inactive) | > 100 µM (inactive) | > 100 µM (inactive) | > 100 µM (inactive) | > 100 µM (inactive) | > 100 µM (inactive) | > 100 µM (inactive) | > 100 µM (inactive) | > 100 µM (inactive) |  | > 100 µM (inactive) | > 100 µM (inactive) | > 100 µM (inactive) | > 100 µM (inactive) | > 100 µM (inactive) | > 100 µM (inactive) | > 100 µM (inactive) | > 100 µM (inactive) |  |
| CSc1ccc2c(cc1=O)C(NC(=O)c1cc(O)c(OC(=O)O)c(O)c1)CCc1cc(O)c(O)c(O)c1-2 (configuration not stated) | 16.5 µM (inactive) | 24.4 µM (inactive) | 19.5 µM (inactive) | 22.8 µM (inactive) | 31 µM (inactive) | 17.4 µM (inactive) | > 89.9 µM (inactive) | 19.8 µM (inactive) | 5.87 µM (inactive) | 35 µM (inactive) | 32.7 µM (inactive) | 26.5 µM (inactive) | 12.2 µM (inactive) | 10 µM (inactive) | 12.9 µM (inactive) | 15.7 µM (inactive) |  |  |  |  |
| COc1cc(C2c3cc4c(cc3[C@@H](Nc3ccc5c(c3)OCCO5)C3COC(=O)[C@H]23)OCO4)cc(OC)c1O (some centres not stated) | 0.194 µM (active) | 2.05 µM (inactive) | 0.104 µM (active) | 0.478 µM (active) | 2.57 µM (inactive) | 0.301 µM (active) | 2.19 µM (inactive) | 0.771 µM (active) | 0.301 µM (active) | 1.6 µM (inactive) | 0.581 µM (active) | 0.435 µM (active) | 0.413 µM (active) | 0.105 µM (active) | 0.587 µM (active) | 0.448 µM (active) |  |  |  | 3.9 µM (inactive) |
| CC(C)CC(NC(=O)C(Cc1ccccc1)NC(=O)C(COCc1ccccc1)NC(=O)OC(C)(C)C)C(=O)OCc1ccccc1 (stereo not drawn) (Boc-Ser(Bn)-Phe-Leu-OBn; configuration not given here) | 18.5 µM (inactive) | 19.5 µM (inactive) |  |  | 86.7 µM (inactive) | 21.8 µM (inactive) | 56.6 µM (inactive) | 21.7 µM (inactive) | 13.8 µM (inactive) | 78.2 µM (inactive) | 22.1 µM (inactive) | 33.9 µM (inactive) | 9.57 µM (inactive) | 4.01 µM (inactive) | 19.8 µM (inactive) |  |  | 69 µM (inactive) | > 10 µM (inactive) |  |

— ChEMBL document CHEMBL1201862, “PubChem BioAssay data set” (2004)
